Measured values as given in US20230031406A1, “COMPOUNDS AND COMPOSITIONS FOR TREATING CONDITIONS ASSOCIATED WITH NLRP ACTIVITY” (Novartis AG, priority 2018, published 2023).
Where two headings read alike, the source gives them in different places. One block for each molecule: values may come before it.

System: PMA-differentiated THP-1 cells
Experiment: IL-1β production in PMA-differentiated THP-1 cells stimulated with gramicidin (hTHP-1 assay containing 2% fetal bovine serum; Procedures 1 and 2)
Type: cell-based, human
Conditions: 2% fetal bovine serum
Summary of the method: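 THP-1 cells were differentiated with PMA (20 ng/ml, 16-18 h), detached, and plated at 50,000 cells/well in RPMI 1640 with 2% FBS. They were pre-treated with compound (0.0017–100 μM, 0.37% DMSO) for 1 h, then stimulated with gramicidin (5 μM) for 2 h. Supernatant IL-1β was measured by HTRF.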

[1] = Homo sapiens, THP-1, Table B2, class symbols, read-out: hTHP-1 IC50
[2] = Homo sapiens, THP-1, Table B1, class symbols, read-out: Average IC50 of compounds in hTHP-1 assay: hTHP-1 IC50
[3] = Table B3, hTHP-1 assay, class symbols, read-out: IC50
[4] = Table B1, class symbols, read-out: Average IC50 of compounds in hTHP-1 assay: hTHP-1 IC50
[5] = Table B2, class symbols, read-out: hTHP-1 IC50
[6] = Homo sapiens, THP-1, Table B2, numeric bounds, read-out: hTHP-1 IC50

SMILES: CC(C)(O)c1cccc(S(N)(=O)=NC(=O)Nc2c3c(nc4c2CCC4)CCC3)c1 (stereo not shown) [Compound 625, N′-((1,2,3,5,6,7-hexahydrodicyclopenta[b,e]pyridin-8-yl)carbamoyl)-3-(2-hydroxypropan-2-yl)benzenesulfonimidamide]
IC50 [1]: 5000 to 30000 nM

SMILES: CC(C)c1cncc(C(C)C)c1NC(=O)N=S(N)(=O)c1cnc(C(C)(C)O)s1 (single isomer, unassigned) [Compound 160b, (S) or (R)-N′-((3,5-diisopropylpyridin-4-yl)carbamoyl)-2-(2-hydroxypropan-2-yl)thiazole-5-sulfonimidamide]
IC50 [2]: 5000 to 30000 nM

SMILES: CC1CCc2c1nc1c(c2NC(=O)N=S(N)(=O)c2cnn(C(C)C)c2)CCC1 (single isomer, unassigned) [Compound 171d, (S, S) and (S, R) or (R, S) and (R, R)-1-Isopropyl-N′-((3-methyl-1,2,3,5,6,7-hexahydrodicyclopenta [b,e]pyridin-8-yl)carbamoyl)-1H-pyrazole-4-sulfonimidamide]
IC50 (Table B2, numeric bounds, read-out: hTHP-1 IC50): > 30000 nM

SMILES: CNS(=O)(=NC(=O)Nc1c2c(nc3c1CCC3)CCC2)c1ccc(CN(C)C)cc1 (single isomer, unassigned) [Compound 120b, (S) or (R)-4-((dimethylamino)methyl)-N′-((1,2,3,5,6,7-hexahydro-dicyclopenta[b,e]pryidin-8-yl)carbamoyl)-N-methylbenzene-sulfonimidamide]
IC50 (Table B1, numeric bounds, read-out: Average IC50 of compounds in hTHP-1 assay: hTHP-1 IC50): > 30000 nM

SMILES: CC1CCc2c1nc1c(c2NC(=O)N=S(N)(=O)c2cnc(C(C)(C)O)s2)CCC1 (stereo not shown) [Compound 162, 2-(2-hydroxypropan-2-yl)-N′-((3-methyl-1,2,3,5,6,7-hexahydrodicyclopenta[b,e]pyridin-8-yl)carbamoyl)thiazole-5-sulfonimidamide]
IC50 [4]: 40 to 200 nM

SMILES: CC(C)n1ccc(S(N)(=O)=NC(=O)Nc2c3c(nc4c2CCC4)CCC3)n1 (stereo not shown) [Compound 119, N′-((1,2,3,5,6,7-hexahydrodicyclopenta[b,e]pyridin-8-yl)carbamoyl)-1-isopropyl-1H-pyrazole-3-sulfonimidamide]
IC50 [2]: 1000 to 5000 nM

SMILES: CC(C)(O)c1cc(F)c([S@](N)(=O)=NC(=O)Nc2cc(CC(F)(F)F)nc3c2CCC3)s1 [Compound 602b]
IC50 [1]: 1000 to 5000 nM

SMILES: CCc1c(C)nc2c(c1NC(=O)N=S(N)(=O)c1cnc(C(C)(C)O)s1)CCC2 (single isomer, unassigned) [Compound 117a, (S) or (R)-N′-((3-ethyl-2-methyl-6,7-dihydro-5H-cyclopenta[b]pyridin-4-yl)carbamoyl)-2-(2-hydroxypropan-2-yl)thiazole-5-sulfonimidamide]
IC50 (Homo sapiens, THP-1, Table B1, numeric bounds, read-out: Average IC50 of compounds in hTHP-1 assay: hTHP-1 IC50): > 30000 nM

SMILES: Cn1nc(C(C)(C)O)cc1S(N)(=O)=NC(=O)Nc1c2c(nc3c1CCC3)CCC2 (stereo not shown) [Compound 166, N′-((1,2,3,5,6,7-hexahydrodicyclopenta[b,e]pyridin-8-yl)carbamoyl)-3-(2-hydroxypropan-2-yl)-1-methyl-1H-pyrazole-5-sulfonimidamide]
IC50 [2]: 5000 to 30000 nM

SMILES: CC1(C)CCc2c1nc1c(c2NC(=O)N=S(N)(=O)c2sc(C(C)(O)CO)cc2F)CCC1 (single isomer, unassigned) [Compound 640c, (R, S) and (S, S) or (S, R) and (R, R)-5-(1,2-Dihydroxypropan-2-yl)-N′-((3,3-dimethyl-1,2,3,5,6,7-hexahydrodicyclopenta [b,e]pyridin-8-yl)carbamoyl)-3-fluorotliophene-2-sulfonimidamide]
IC50 [5]: 1000 to 5000 nM

SMILES: CC1CCc2c1nc1c(c2NC(=O)N=S(N)(=O)c2ccn(C(C)C)n2)CCC1 (single isomer, unassigned) [Compound 129ba, (R,S) or (R,R)-1-isopropyl-N′-((3-methyl-1,2,3,5,6,7-hexa-hydrodicyclo-penta[b,e]pyridin-8-yl)carbamoyl)-1H-pyrazole-3-sulfonimidamide]
IC50 [4]: 1000 to 5000 nM

SMILES: COCc1nc(C(C)(C)O)sc1S(N)(=O)=NC(=O)Nc1c2c(nc3c1CCC3(C)C)CCC2 (stereo not shown) [Compound 170, N′-((3,3-dimethyl-1,2,3,5,6,7-hexahydrodicyclopenta[b,e]pyridin-8-yl)carbamoyl)-2-(2-hydroxypropan-2-yl)-4-(methoxymethyl)thiazole-5-sulfonimidamide]
IC50 [2]: 1000 to 5000 nM

SMILES: NS(=O)(=NC(=O)Nc1c2c(nc3c1CCC31CC1)CCC2)c1ccn(C(F)F)n1 (stereo not shown) [Compound 180, 1-(difluoromethyl)-N′-((1′,5′,6′,7′-tetrahydro-2′H-spiro[cyclopropane-1,3′-dicyclopenta[b,e]pyridin]-8′-yl)carbamoyl)-1H-pyrazole-3-sulfonimidamide]
IC50 [2]: 1000 to 5000 nM

SMILES: CC(C)(O)c1csc(S(N)(=O)=NC(=O)Nc2c3c(nc4c2CCC4(C)C)CCC3)c1 (single isomer, unassigned) [Compound 127a, (S) or (R)-N′-((3,3-dimethyl-1,2,3,5,6,7-hexahydro-dicyclopenta[b,e]pyridin-8-yl)carbamoyl)-4-(2-hydroxypropan-2-yl)thiophene-2-sulfonimidamide]
IC50 [4]: 1000 to 5000 nM

SMILES: CC(C)c1ncc(F)c(C(C)C)c1NC(=O)N=S(N)(=O)c1sc(C(C)(C)O)cc1F (single isomer, unassigned) [Compound 106a, (R) or (S)-3-fluoro-N′-((5-fluoro-2,4-diisopropylpyridin-3-yl)carbamoyl)-5-(2-hydroxypropan-2-yl)thiophene-2-sulfonimidamide]
IC50 [4]: 40 to 200 nM

SMILES: NS(=O)(=NC(=O)Nc1c2c(nc3c1CCC31CC1)CCC2)c1cnn(C(F)F)c1 (stereo not shown) [Compound 638, 1-(Difluoromethyl)-N′-((1′,5′,6′,7′-tetrahydro-2′H-spiro[cyclopropane-1,3′-dicyclopenta[b,e]pyridin]-8′-yl)carbamoyl)-1H-pyrazole-4-sulfonimidamide]
IC50 [1]: 5000 to 30000 nM

SMILES: CC1(C)CCc2c1nc1c(c2NC(=O)N=S(N)(=O)c2cnn(C(F)F)c2)CCC1 (single isomer, unassigned) [Compound 637b, (S) or (R)-1-(Difluoromethyl)-N′-((3,3-dimethyl-1,2,3,5,6,7-hexahydrodicyclopenta [b,e]pyridin-8-yl)carbamoyl)-1H-pyrazole-4-sulfonimidamide]
IC50 [1]: 1000 to 5000 nM
IC50 [6]: > 30000 nM

Second part, the molecule after the results:

IC50 [3]: 40 to 200 nM
SMILES: CCn1cc(F)c(S(N)(=O)=NC(=O)Nc2c(C)c(C3CC3)nc3c2CCC3)n1 (single isomer, unassigned) [Example 713, (R) or (S)-N′-((2-cyclopropyl-3-methyl-6,7-dihydro-5H-cyclopenta[b]pyridin-4-yl)carbamoyl)-1-ethyl-4-fluoro-1H-pyrazole-3-sulfonimidamide]

IC50 [5]: 1000 to 5000 nM
SMILES: Cc1cc(S(N)(=O)=NC(=O)Nc2c3c(nc4c2CCC4)CCC3)sc1C(C)(C)O (single isomer, unassigned) [Compound 692b, (R) or (S)-N′-((1,2,3,5,6,7-hexahydrodicyclopenta [b,e]pyridin-8-yl)carbamoyl)-5-(2-hydroxypropan-2-yl)-4-methylthiophene-2-sulfonimidamide]

IC50 [1]: 200 to 1000 nM
SMILES: CCn1ccc([S@](N)(=O)=NC(=O)Nc2c(C)c(C(F)(F)F)nc3c2CCC3)n1 [Compound 731b]

IC50 (Homo sapiens, THP-1, Table B4, class symbols, read-out: hTHP-1 IC50): 1000 to 5000 nM
SMILES: C[C@H]1CCc2c1nc1c(c2NC(=O)N=S(N)(=O)c2cnc([C@](C)(O)CO)s2)CCC1 (single isomer, unassigned) [Example 732]

IC50 [3]: 1000 to 5000 nM
SMILES: CC1(C)CCc2c1nc1c(c2NC(=O)N=S(N)(=O)c2nn(C(F)F)cc2F)CCC1 (single isomer, unassigned) [Example 722, (S) or (R)-1-(difluoromethyl)-N′-((3,3-dimethyl-1,2,3,5,6,7-hexahydrodicyclopenta[b,e]pyridin-8-yl)carbamoyl)-4-fluoro-1H-pyrazole-3-sulfonimidamide]

IC50 [1]: 1000 to 5000 nM
SMILES: Cc1c(C2(F)CC2)nc2c(c1NC(=O)N=S(N)(=O)c1cc(C(C)(C)O)cs1)CCC2 (stereo not shown) [Compound 722]

IC50 (Homo sapiens, THP-1, Table B3, hTHP-1 assay, class symbols, read-out: IC50): 40 to 200 nM
SMILES: CC1(C)CCc2c1nc1c(c2NC(=O)N=[S@@](N)(=O)c2cc([C@@](C)(O)CO)cs2)CCC1 [Example 653, (R)-4-((R)-1,2-dihydroxypropan-2-yl)-N′-((3,3-dimethyl-1,2,3,5,6,7-hexahydrodicyclopenta[b,e]pyridin-8-yl)carbamoyl) thiophene-2-sulfonimidamide]

IC50 [5]: 200 to 1000 nM
SMILES: Cc1c(C(C)C)nc2c(c1NC(=O)N=S(N)(=O)c1cc(C(C)(C)O)cs1)CCC2 (single isomer, unassigned) [Compound 681b, (R) or (S)-4-(2-Hydroxypropan-2-yl)-N′-((2-isopropyl-3-methyl-6,7-dihydro-5H-cyclopenta[b]pyridin-4-yl)carbamoyl) thiophene-2-sulfonimidamide]

IC50 [6]: > 30000 nM
SMILES: CC(C)n1cc(Cl)c(S(N)(=O)=NC(=O)Nc2c3c(nc4c2CCC4)CCC3)n1 (single isomer, unassigned) [Compound 694a, (S) or (R)-4-Chloro-N′-((1,2,3,5,6,7-hexahydrodicyclopenta [b,e]pyridin-8-yl)carbamoyl)-1-isopropyl-1H-pyrazole-3-sulfonimidamide]

IC50 (Table B4, class symbols, read-out: hTHP-1 IC50): 8 to 40 nM
SMILES: CCn1cc(F)c(S(N)(=O)=NC(=O)Nc2c3c(nc(C(F)(F)F)c2-c2cccc(F)c2)CCC3)n1 (single isomer, unassigned) [Example 781, (R) or (S)-1-ethyl-4-fluoro-N′-((3-(3-fluorophenyl)-2-(trifluoromethyl)-6,7-dihydro-5H-cyclopenta[b]pyridin-4-yl)carbamoyl)-1H-pyrazole-3-sulfonimidamide]
